Test results reported in patent US8822449B2, “Substituted aminoindanes and analogs thereof, and the pharmaceutical use thereof” (Sanofi, priority 2008, dated 2014).

Target: T1, sodium-proton exchanger of subtype 3 (NHE3) (Homo sapiens, UniProt P48764)
T1 construct: expressed in transfected cells
T1 sequence (P48764 26-834): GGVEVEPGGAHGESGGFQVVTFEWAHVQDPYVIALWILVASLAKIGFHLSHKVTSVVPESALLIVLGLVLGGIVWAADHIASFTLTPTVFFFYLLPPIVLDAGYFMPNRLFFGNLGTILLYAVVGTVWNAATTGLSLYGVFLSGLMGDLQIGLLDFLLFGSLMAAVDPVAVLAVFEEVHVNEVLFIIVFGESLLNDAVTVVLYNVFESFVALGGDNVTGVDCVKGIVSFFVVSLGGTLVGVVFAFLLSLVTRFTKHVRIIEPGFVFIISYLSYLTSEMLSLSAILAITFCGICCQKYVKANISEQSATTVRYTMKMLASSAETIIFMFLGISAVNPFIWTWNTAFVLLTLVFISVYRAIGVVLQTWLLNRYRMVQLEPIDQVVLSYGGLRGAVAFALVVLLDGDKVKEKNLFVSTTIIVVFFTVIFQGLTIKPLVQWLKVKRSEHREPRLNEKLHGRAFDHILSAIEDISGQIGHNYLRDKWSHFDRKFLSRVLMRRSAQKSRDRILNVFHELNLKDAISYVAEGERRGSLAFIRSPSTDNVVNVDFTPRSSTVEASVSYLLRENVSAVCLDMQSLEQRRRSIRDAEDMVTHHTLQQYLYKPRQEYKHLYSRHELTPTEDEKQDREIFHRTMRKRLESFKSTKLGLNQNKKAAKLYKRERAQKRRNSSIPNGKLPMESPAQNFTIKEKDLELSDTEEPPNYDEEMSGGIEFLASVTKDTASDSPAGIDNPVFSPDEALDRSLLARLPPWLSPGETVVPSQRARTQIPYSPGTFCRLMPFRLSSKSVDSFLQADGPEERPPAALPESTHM
Experiment: Recovery of intracellular pH (pHi) after acidification in LAP1 cells stably expressing NHE3 (BCECF fluorescence, FLIPR)
Assay type: cell-based
Details: LAP1 cells stably expressing NHE3; pH recovery after acidification; range 1 is % inhibition at 10 μM; read-out: Activity range (inhibitory effect on NHE3)

## CC(C)(C)N[C@H]1Cc2ccccc2[C@@H]1Oc1ccc(S(C)(=O)=O)cc1 (racemic) [Example 701, tert-butyl-[1-(4-methanesulfonylphenoxy)indan-2-yl]amine]
  IC50: 1000 to 10000 nM

## N[C@H]1CCCN([C@H]2CCc3ccccc3[C@@H]2Oc2ccncc2)C1 (racemic) [Example 191, (S)-1-[rac-trans-(1,2)-1-(pyridin-4-yloxy)-1,2,3,4-tetrahydronaphthalen-2-yl]piperidin-3-ylamine]
  inhibition at 10 µM: 20 to 50%

## COC(=O)c1ccc(O[C@H]2c3cc(Cl)cc(Cl)c3C[C@@H]2N2CC[C@@H](O)C2)c(F)c1 [Example 553, 4-[trans-(1S,2S)-4,6-dichloro-2-((R)-3-hydroxypyrrolidin-1-yl)indan-1-yloxy]-3-fluorobenzoic acid methyl ester]
  IC50: 1000 to 10000 nM

## CN1CCN([C@H]2Cc3c(Cl)cc(Cl)cc3[C@@H]2Oc2ccc(C#N)cc2F)CC1 [Example 485, 4-[(1S,2S)-4,6-dichloro-2-(4-methylpiperazin-1-yl)indan-1-yloxy]-3-fluorobenzonitrile]
  inhibition at 10 µM: 20 to 50%

## CS(=O)(=O)c1ccc(O[C@H]2c3cc(Cl)cc(Cl)c3C[C@@H]2N2CC[C@@H](NCCF)C2)cc1 [Example 226, {(R)-1-[trans-(1S,2S)-4,6-dichloro-1-(4-methanesulfonylphenoxy)indan-2-yl]pyrrolidin-3-yl}-(2-fluoroethyl)amine]
  IC50: < 1000 nM

## c1ccc2c(c1)C[C@@H](N1C[C@H]3CNC[C@H]3C1)[C@@H]2Oc1ccc2cc[nH]c2c1 (racemic) [Example 587, 6-[rac-trans-(1,2)-2-(Hexahydropyrrolo[3,4-c]pyrrol-2-yl)indan-1-yloxy]-1H-indole]
  IC50: 1000 to 10000 nM

## CN(C1CCC1)[C@@H]1Cc2ccccc2[C@H]1Oc1ccc(S(C)(=O)=O)cc1 (racemic) [Example 734, Cyclobutyl-[rac-trans-(1,2)-1-(4-methanesulfonyl-phenoxy)-indan-2-yl]-methyl-amine]
  IC50: 1000 to 10000 nM

## N[C@H]1CCCN([C@H]2CCc3ccccc3[C@@H]2Oc2ccc(OC(F)F)cc2)C1 (racemic) [Example 176, (S)-1-[rac-trans-(1,2)-1-(4-difluoromethoxyphenoxy)-1,2,3,4-tetrahydronaphthalen-2-yl]piperidin-3-ylamine]
  inhibition at 10 µM: 20 to 50%

## CS(=O)(=O)c1ccc(O[C@H]2c3ccccc3C[C@@H]2N2CCC[C@@H](NC(=O)C(F)(F)F)C2)cc1 [Example 354, 2,2,2-trifluoro-N-{(R)-1-[trans-(1S,2S)-1-(4-methanesulfonylphenoxy)indan-2-yl]piperidin-3-yl}acetamide]
  inhibition at 10 µM: 20 to 50%

## NCC1CCN([C@@H]2Cc3ccccc3[C@H]2Oc2cccc(N3CCNCC3)c2)CC1 (racemic) [Example 616, C-{1-[rac-trans-(1,2)-1-(3-piperazin-1-ylphenoxy)indan-2-yl]piperidin-4-yl}methylamine]
  IC50: 1000 to 10000 nM

## Cc1nnc(C)n1-c1ccc(O[C@H]2c3cc(Cl)c(Cl)cc3C[C@@H]2N2CCCC2)cc1 (racemic) [Example 498, 4-[4-(rac-trans-(1,2)-5,6-dichloro-2-pyrrolidin-1-ylindan-1-yloxy)phenyl]-3,5-dimethyl-4H-[1,2,4]triazole]
  inhibition at 10 µM: 20 to 50%

## CS(=O)(=O)c1ccc(O[C@H]2c3cc(Cl)cc(Cl)c3C[C@@H]2N2CCCNCC2)cc1 [Example 298, 1-[trans-(1S,2S)-4,6-dichloro-1-(4-methanesulfonylphenoxy)indan-2-yl]-[1,4]diazepane]
  IC50: < 1000 nM

## NS(=O)(=O)c1ccc(O[C@H]2c3ccccc3C[C@@H]2CN2CCCC2)c(Cl)c1 (racemic) [Example 442, 3-chloro-4-(2-pyrrolidin-1-ylmethylindan-1-yloxy)benzenesulfonamide]
  IC50: 1000 to 10000 nM

## NS(=O)(=O)c1ccc(O[C@H]2c3ccccc3C[C@@H]2CN2CCCCC2)c(Cl)c1 (racemic) [Example 440, 3-chloro-4-(2-piperidin-1-ylmethylindan-1-yloxy)benzenesulfonamide]
  inhibition at 10 µM: 20 to 50%

## CC(=O)Nc1cccc(O[C@@H]2c3cc(Cl)cc(F)c3C[C@H]2N2CCCC2)c1 (racemic) [Example 660, N-[3-(rac-trans-(1,2)-6-chloro-4-fluoro-2-pyrrolidin-1-ylindan-1-yloxy)phenyl]acetamide]
  IC50: 1000 to 10000 nM

## Cc1nnc(C)n1-c1ccc(O[C@H]2c3cc(Cl)ccc3C[C@@H]2N2CC[C@@H](F)C2)c(F)c1 [Example 563, 4-{4-[trans-(1S,2S)-6-chloro-2-((R)-3-fluoropyrrolidin-1-yl)indan-1-yloxy]-3-fluorophenyl}-3,5-dimethyl-4H-[1,2,4]triazole]
  IC50: < 1000 nM

## N[C@@H]1CCCN([C@H]2Cc3c(Cl)cc(Cl)cc3[C@@H]2Oc2ccc(-n3cncn3)cc2)C1 [Example 97, (R)-1-[trans-(1S,2S)-4,6-dichloro-1-(4-[1,2,4]triazol-1-ylphenoxy)indan-2-yl]piperidin-3-ylamine]
  IC50: < 1000 nM

## Cc1cc(O[C@H]2c3cc(F)cc(Cl)c3C[C@@H]2N2CCCC2)ccc1S(C)(=O)=O (racemic) [Example 282, 1-[rac-trans-(1,2)-4-chloro-6-fluoro-1-(4-methanesulfonyl-3-methylphenoxy)indan-2-yl]pyrrolidine]
  inhibition at 10 µM: 20 to 50%

## Cc1nnc(C)n1-c1ccc(O[C@H]2c3cc(Cl)cc(Cl)c3C[C@@H]2N2CCCNCC2)c(Cl)c1 [Example 344, 1-{trans-(1S,2S)-4,6-dichloro-1-[2-chloro-4-(3,5-dimethyl-[1,2,4]triazol-4-yl)phenoxy]indan-2-yl}-[1,4]diazepane]
  IC50: < 1000 nM

## COc1cccc(F)c1O[C@@H]1c2ccccc2C[C@H]1N(C)C1CCNCC1 (racemic) [Example 215, [rac-trans-(1,2)-1-(2-fluoro-6-methoxyphenoxy)indan-2-yl]methylpiperidin-4-ylamine]
  IC50: 1000 to 10000 nM

## CC(=O)Nc1cccc(OC2c3ccccc3CC2N2CC[C@@H](N3CCCC3)C2)c1 (mixture of isomers) [Example 670, N-[rac-trans-(1,2)-3-((R)-2-[1,3′]bipyrrolidinyl-1′-ylindan-]
  inhibition at 10 µM: 20 to 50%

## COc1ccc(C)cc1O[C@@H]1c2ccccc2C[C@H]1N1CCC(CN)C1 (mixture of isomers) [Example 607, C-{1-[rac-trans-(1,2)-1-(2-methoxy-5-methylphenoxy)indan-2-yl]pyrrolidin-3-yl}methylamine]
  IC50: 1000 to 10000 nM

## CCCC1(N)CCCN([C@H]2Cc3c(Cl)cc(Cl)cc3[C@@H]2Oc2ccc(S(C)(=O)=O)cc2)C1 (stereo partly drawn) [Example 299, 1-[trans-(1S,2S)-4,6-dichloro-1-(4-methanesulfonylphenoxy)indan-2-yl]-3-propylpiperidin-3-ylamine]
  IC50: < 1000 nM

## N[C@@H]1CCCN([C@@H]2Cc3ccccc3[C@H]2Oc2ccc(N3CCNCC3)cc2)C1 (racemic) [Example 76, (R)-1-[rac-trans-(1,2)-1-(4-piperazin-1-ylphenoxy)indan-2-yl]piperidin-3-ylamine]
  IC50: 1000 to 10000 nM

## CC(=O)Nc1cccc(O[C@H]2c3cc(Cl)cc(Cl)c3C[C@@H]2N2CCN(C)CC2)c1 [Example 697, N-{3-[trans-(1S,2S)-4,6-dichloro-2-(4-methylpiperazin-1-yl)indan-1-yloxy]phenyl}acetamide]
  IC50: 1000 to 10000 nM

## N[C@@H]1CCCN([C@H]2Cc3ccccc3[C@@H]2Oc2ccc(S(N)(=O)=O)cc2)C1 [Example 552, 4-[trans-(1S,2S)-2-((R)-3-aminopiperidin-1-yl)indan-1-yloxy]benzenesulfonamide]
  IC50: < 1000 nM
